How the values were obtained:
leukemia P388 cells [1] = assay: Leukemia P388 in mice: serum cytokines, ascitic fluid, survival (Example 5); conditions: for Accumulation of ascitic fluid (weight gain) / Concentration in serum: IFNα / Concentration in serum: IL-1 / Concentration in serum: IL-2 / Concentration in serum: IL-6 / Concentration in serum: TNFα: P388 mice
Description: (§6) An influence of 7 day course of test article daily administration was studied in respect of variations of serum cytokine levels (IL-1, IL-2, IL-6, IFNα, TNF). In parallel, the tumor progression was estimated using the two integral indices: pace of mouse weight gain due to accumulation of ascitic fluid, and by animal mean survival time after inoculation.
(§7) The study was carried out on DBA/2 mice weighing 18-21 g. First, tumor cell passage was performed using 6 animals for each cell line. For this, cells kept at the temperature of the liquid nitrogen were de-frozen and adjusted to the concentration of 5×10^6 cells/mL by sterile Hanks' solution. Then, 6 mice were intraperitoneally inoculated with 0.2 mL of each line cellular suspension.
(§8) Ascitic fluid was collected 6 days after the inoculation with L1210 cells and 8 days after the inoculation with P388 ones. Thus obtained, the samples of passaged tumor cells were used for the main experiments. The fluid liquid was dissolved by sterile Hanks' solution so that cell concentration be 5×10^6 cells/mL for P388 cells and 5×10^5 cells/mL for L1210 cells.
(§9) Nine groups of animals with no less than 15 mice each were formed for experiments with either tumor cell line. Mice were inoculated with 0.2 mL of resultant cell suspensions per mouse (10^6 P388 cells/mouse, and 10^5 L1210 cells/mouse). 24 hours after the tumor cells inoculation. animals were given the first injections of the test articles or vehicles. The test article injections were made daily till the 14th day of the experiment or until the animal's death. The volume of solutions injected comprised 0.01 mL/g body weight.
(§10) #1—intact animals receiving imitation of tumor cell inoculation (injection of normal saline) which further were treated with normal saline throughout the entire experiment;
(§11) #2—control animals, inoculated with tumor cells, which further were treated with test article vehicle (normal saline);

normal human lymphocytes = assay: Proliferation/apoptosis of normal human lymphocytes (cell number per well, flow cytofluorometry); assay type: cell-based
[2] = test system: e-ras cell line (REF transformed with E1A and ras-oncogene); assay: Number of clones of e-ras cells throughout 72-hr incubation; assay type: cell-based, rat
Description: (§1) To this end, these substances had been incubated for 72 hours with cells of rat embrional fibroblasts (REF) and the same cells, transformed with adenoviral E1A gene in complementation with ras-oncogene (e-ras cell line). Subsequent evaluation of the cellularity of experimental samples was carried out by counting the quantity of cell per milliliter (for REF cell line) or clones in dish (for e-ras cell line).
(§2) Cells were cultivated on DMEM medium supplemented with 10% fetal calf serum and […] gentamicin. Cultivation was carried out in Petri dishes.
(§3) E-ras cells were seeded at a cell density of 300 cells per 5 cm dish. 7 days after growth of e-ras cells had been started the quantity of clones was evaluated and the test articles were added into the dishes.
(§4) For the test-system for estimation of apoptosis regulation UV-induced cell death was triggered in a dose of 4 Dj. Test articles were added immediately after irradiation. Then, the quantity of cell per milliliter (for REF cell line) or clones in dish (for e-ras cell line) were monitored every 24 hours. For determination of DNA-fragmentation the electrophoresis in agarose gel was used at standard settings.

[3] = test system: rat embrional fibroblasts (REF) after UV-irradiation; assay: Number of REF cells after UV-irradiation; assay type: cell-based
Description: as §1, §2
(§5) REF cells was cultivated with initial density of 800 000 cell per mL, evaluation of the cellularity was performed at 0, 24, 48 and 72 hours of incubation with the test articles.
as §4

[4] = test system: rat embrional fibroblasts (REF); assay: Number of REF cells throughout 72-hr incubation; assay type: cell-based
Description: as §1, §2, §5, §4

[5] = test system: Erlich adenocarcinoma cells; assay: Erlich adenocarcinoma in mice: ascitic fluid and survival (Example 14); conditions: for Accumulation of ascitic (weight gain, %): Erlich adenocarcinoma
Description: (§12) An influence of 7 day course of test article daily administration was studied in respect of tumor progression, which was estimated using the two integral indices: pace of mouse weight gain due to accumulation of ascitic fluid, and by animal mean survival time after inoculation.
(§13) The study was carried out on DBA/2 mice weighing 18-21 g. First, tumor cell passage was performed using 6 animals for each cell line. For this, cells kept at the temperature of the liquid nitrogen were de-frozen and adjusted to the concentration of 5×10^6 cells/mL by sterile Hanks' solution. Then, 6 mice were intra peritoneally inoculated with 0.2 mL of each line cellular suspension.
(§14) Ascitic fluid was collected 6 days after the inoculation with L1210 cells, 8 days after the inoculation with P388 ones and 18 days after inoculation with Erlich adenocarcinoma cells. Thus obtained, the samples of passaged tumor cells were used for the main experiments. The fluid liquid was dissolved by sterile Hanks' solution so that cell concentration be 5×10^6 cells/mL for P388 cells and Erlich adenocarcinoma cells, 5×10^5 cells/mL for L1210 cells.
(§15) Eleven groups of animals with no less than 15 mice each were formed for experiments with either tumor cell line. Mice were inoculated with 0.2 mL of resultant cell suspensions per mouse (10^6 P388 and Erlich adenocarcinoma cells/mouse, and 10^5 L1210 cells/mouse). 24 hours after the tumor cells inoculation, animals were given the first injections of the test articles or vehicles. The test article injections were made daily till the 14th day of the experiment or till the animal death. The volume of solutions injected comprised 0.01 mL/g body weight.
as §10, §11

leukemia L1210 cells [6] = assay: Leukemia L1210 in mice: ascitic fluid and survival (Example 14); conditions: for Accumulation of ascitic (weight gain, %): leukemia L1210
leukemia L1210 cells [7] = assay: Leukemia L1210 in mice: serum cytokines, ascitic fluid, survival (Example 5); conditions: for Accumulation of ascitic fluid (weight gain) / Concentration in serum: IFNα / Concentration in serum: IL-1 / Concentration in serum: IL-2 / Concentration in serum: IL-6 / Concentration in serum: TNFα: L1210 mice
Description: as §6, §7, §8, §9, §10, §11

leukemia P388 cells [8] = assay: Leukemia P388 in mice: ascitic fluid and survival (Example 14); conditions: for Accumulation of ascitic (weight gain, %): leukemia P388
Description: as §12, §13, §14, §15, §10, §11

[9] = test system: e-ras cells after UV-irradiation; assay: Number of clones of e-ras cells after UV-irradiation; assay type: cell-based, rat
Description: as §1, §2, §3, §4

HL-60 cells = assay: Proliferation/apoptosis of HL-60 tumor cells (cell number per well, flow cytofluorometry)
Description: Subsequent evaluation of the cell cycle parameters was carried out by the flow cytofluorometry technique.
A mononuclear fraction of blood leukocytes were obtained by centrifugation in gradient of fikoll-metrizoat (Histopaque, Sigma). […] Cell viability was estimated by the Trypan blue exclusion method, then the cell suspension was placed into wells of 96-well microtiter plates—200,000 cells per well. […] Cultivation was carried out in closed flasks, the medium volume was 12 mL, it was changed every four days by centrifugation. The nature of the cells growth was suspensive. […] 50 μL of each test solution were added to one or the other cell culture and thereafter cells were cultivated for 24-96 hours. Then, they were tested by the flow cytofluorometry to estimate DNA content in the cell nuclei. In case of apoptosis-like cellular death, the portion of cell nuclei with normal content of DNA became reduced, while the portion of cell nuclei containing abnormally small DNA quantity became larger.
The analysis procedure was the following: after incubation completion, cells were centrifuged and transferred to a standard phosphate isotonic buffer pH 7.4, containing RNA-ase A (20 μg/mL), ethidium bromide (fluorometric indicator for double stranded nucleic acid. 10 μg/mL) and MgCl2 (5 mM). After the cells were disintegrated by nonionic detergent Triton X-100 (final concentration 0.1%). The suspension of cell nuclei thus obtained was analyzed by flow cytofluorometry with an argon laser as a source of light (wave length 488 nm). The red fluorescence due to DNA bound ethidium bromide was taken to be the measure of DNA content in the cell nuclei.

OO [0.003% H2O2, hydrogen peroxide]
Accumulation of ascitic fluid (weight gain) (leukemia P388 cells [1]; 0 injections): 0.63 ± 0.15%
Concentration in serum: IFNα (leukemia P388 cells [1]; 0 injections): 129. ± 10.0 pg/mL
Concentration in serum: IL-1 (leukemia P388 cells [1]; 0 injections): 15.5 ± 2.04 pg/mL
Concentration in serum: IL-2 (leukemia P388 cells [1]; 0 injections): 14.95 ± 2.16 pg/mL
Concentration in serum: IL-6 (leukemia P388 cells [1]; 0 injections): 134.0 ± 15.6 pg/mL
Concentration in serum: TNFα (leukemia P388 cells [1]; 0 injections): 119. ± 9.13 pg/mL
Accumulation of ascitic fluid (weight gain) (leukemia P388 cells [1]; 3 daily injections): 5.4 ± 0.62%
Concentration in serum: IFNα (leukemia P388 cells [1]; 3 daily injections): 205.8 ± 18.3 pg/mL
Concentration in serum: IL-1 (leukemia P388 cells [1]; 3 daily injections): 44.7 ± 6.14 pg/mL
Concentration in serum: IL-2 (leukemia P388 cells [1]; 3 daily injections): 22.0 ± 2.81 pg/mL
Concentration in serum: IL-6 (leukemia P388 cells [1]; 3 daily injections): 156.0 ± 16.3 pg/mL
Concentration in serum: TNFα (leukemia P388 cells [1]; 3 daily injections): 144.5 ± 12.8 pg/mL
Accumulation of ascitic fluid (weight gain) (leukemia P388 cells [1]; 7 daily injections): 20.3 ± 2.28%
Concentration in serum: IFNα (leukemia P388 cells [1]; 7 daily injections): 190. ± 16.7 pg/mL
Concentration in serum: IL-1 (leukemia P388 cells [1]; 7 daily injections): 28.6 ± 4.11 pg/mL
Concentration in serum: IL-2 (leukemia P388 cells [1]; 7 daily injections): 40.8 ± 5.12 pg/mL
Concentration in serum: IL-6 (leukemia P388 cells [1]; 7 daily injections): 110.9 ± 12.5 pg/mL
Concentration in serum: TNFα (leukemia P388 cells [1]; 7 daily injections): 248. ± 20.7 pg/mL
Mean survival time (leukemia P388 cells [1]; mice inoculated with leukemia P388 cells, daily injections till day 14 or death): 9.9 ± 0.24
number of normal lymphocytes per well (normal human lymphocytes; 24 hours incubation): 28 ± 2 × 10^4 cells
number of normal lymphocytes per well (normal human lymphocytes; 48 hours incubation): 73 ± 5 × 10^4 cells
number of normal lymphocytes per well (normal human lymphocytes; 72 hours incubation): 123 ± 8 × 10^4 cells
number of normal lymphocytes per well (normal human lymphocytes; 96 hours incubation): 206 ± 8 × 10^4 cells
number of clones of e-ras cells (M ± m) ([2]; 0 hours of incubation): 288 ± 4
number of clones of e-ras cells (M ± m) ([2]; 24 hours of incubation): 286 ± 4
number of clones of e-ras cells (M ± m) ([2]; 48 hours of incubation): 264 ± 3
number of clones of e-ras cells (M ± m) ([2]; 72 hours of incubation): 234 ± 6
number of REF cells after UV-irradiation (M ± m) ([3]; 0 hours): 822 ± 11 × 10^3 cells
number of REF cells after UV-irradiation (M ± m) ([3]; 24 hours): 365 ± 14 × 10^3 cells
number of REF cells after UV-irradiation (M ± m) ([3]; 48 hours): 258 ± 33 × 10^3 cells
number of REF cells after UV-irradiation (M ± m) ([3]; 72 hours): 159 ± 24 × 10^3 cells
number of REF cells (M ± m) ([4]; 0 hours of incubation): 822 ± 11 × 10^3 cells
number of REF cells (M ± m) ([4]; 24 hours of incubation): 1365 ± 14 × 10^3 cells
number of REF cells (M ± m) ([4]; 48 hours of incubation): 2598 ± 63 × 10^3 cells
number of REF cells (M ± m) ([4]; 72 hours of incubation): 5059 ± 34 × 10^3 cells
Accumulation of ascitic (weight gain, %) ([5]; number of injection 0): 0.9 ± 0.2%
Accumulation of ascitic (weight gain, %) ([5]; number of injection 3): 14.1 ± 0.6%
Accumulation of ascitic (weight gain, %) ([5]; number of injection 7): 27.2 ± 1.2%
Mean survival time ([5]; mice inoculated with Erlich adenocarcinoma cells): 9.8 ± 0.8
Accumulation of ascitic (weight gain, %) (leukemia L1210 cells [6]; number of injection 0): 0.77 ± 0.2%
Accumulation of ascitic (weight gain, %) (leukemia L1210 cells [6]; number of injection 3): 6.1 ± 0.4%
Accumulation of ascitic (weight gain, %) (leukemia L1210 cells [6]; number of injection 7): 19.2 ± 2.2%
Mean survival time (leukemia L1210 cells [6]; mice inoculated with leukemia L1210 cells): 9.2 ± 0.8
Accumulation of ascitic fluid (weight gain) (leukemia L1210 cells [7]; 0 injections): 0.79%
Concentration in serum: IFNα (leukemia L1210 cells [7]; 0 injections): 133.7 pg/mL
Concentration in serum: IL-1 (leukemia L1210 cells [7]; 0 injections): 17.07 pg/mL
Concentration in serum: IL-2 (leukemia L1210 cells [7]; 0 injections): 16.18 pg/mL
Concentration in serum: IL-6 (leukemia L1210 cells [7]; 0 injections): 120.9 pg/mL
Concentration in serum: TNFα (leukemia L1210 cells [7]; 0 injections): 110. pg/mL
Accumulation of ascitic fluid (weight gain) (leukemia L1210 cells [7]; 3 daily injections): 6.12%
Concentration in serum: IFNα (leukemia L1210 cells [7]; 3 daily injections): 189. pg/mL
Concentration in serum: IL-1 (leukemia L1210 cells [7]; 3 daily injections): 38.15 pg/mL
Concentration in serum: IL-2 (leukemia L1210 cells [7]; 3 daily injections): 23.5 pg/mL
Concentration in serum: IL-6 (leukemia L1210 cells [7]; 3 daily injections): 140. pg/mL
Concentration in serum: TNFα (leukemia L1210 cells [7]; 3 daily injections): 158.0 pg/mL
Accumulation of ascitic fluid (weight gain) (leukemia L1210 cells [7]; 7 daily injections): 21.61%
Concentration in serum: IFNα (leukemia L1210 cells [7]; 7 daily injections): 209. pg/mL
Concentration in serum: IL-1 (leukemia L1210 cells [7]; 7 daily injections): 23.6 pg/mL
Concentration in serum: IL-2 (leukemia L1210 cells [7]; 7 daily injections): 45.5 pg/mL
Concentration in serum: IL-6 (leukemia L1210 cells [7]; 7 daily injections): 103. pg/mL
Concentration in serum: TNFα (leukemia L1210 cells [7]; 7 daily injections): 220.0 ± pg/mL
Mean survival time (leukemia L1210 cells [7]; mice inoculated with leukemia L1210 cells, daily injections till day 14 or death): 9.7 ± 0.21
Accumulation of ascitic (weight gain, %) (leukemia P388 cells [8]; number of injection 0): 0.7 ± 0.2%
Accumulation of ascitic (weight gain, %) (leukemia P388 cells [8]; number of injection 3): 4.1 ± 0.4%
Accumulation of ascitic (weight gain, %) (leukemia P388 cells [8]; number of injection 7): 19.0 ± 2.1%
Mean survival time (leukemia P388 cells [8]; mice inoculated with leukemia P388 cells): 21.2 ± 0.8
number of clones of e-ras cells after UV-irradiation (M ± m) ([9]; 0 hours): 288 ± 4
number of clones of e-ras cells after UV-irradiation (M ± m) ([9]; 24 hours): 186 ± 4
number of clones of e-ras cells after UV-irradiation (M ± m) ([9]; 48 hours): 124 ± 3
number of clones of e-ras cells after UV-irradiation (M ± m) ([9]; 72 hours): 84 ± 6
number of HL-60 cells per well (HL-60 cells; 24 hours incubation): 122 ± 6 × 10^4 cells
number of HL-60 cells per well (HL-60 cells; 48 hours incubation): 186 ± 12 × 10^4 cells
number of HL-60 cells per well (HL-60 cells; 72 hours incubation): 488 ± 24 × 10^4 cells
number of HL-60 cells per well (HL-60 cells; 96 hours incubation): 712 ± 22 × 10^4 cells

From US6492329B1, “Cytokine and hemopoietic factor endogenous production enhancer and methods of use thereof” (Novelos Therapeutics, Inc., priority 1995, dated 2002)
